Reference: patent publication US20160129005A1, “ADENINE DERIVATIVES HAVING IMMUNOMODULATING ANTI-INFLAMMATORY AND ANALGESIC ACTIVITY” (MEDESTEA RESEARCH & PRODUCTION S.p.A., priority 2011, published 2016)

Columns and labels:
[1] = system: male Sprague Dawley rats; experiment: Pain from chemotherapeutic drugs: model with paclitaxel (von Frey, Hargreaves); format: in vivo, rat; conditions: P≦0.001
Description: One of the best validated models for testing this effect is that described hereunder; repeated administration of paclitaxel to rats. The animals (male Sprague Dawley rats weighing 250-300 g; Harlan, Italy) were treated with paclitaxel (2 mg/kg) administered intraperitoneally on alternate days (day 0,2,4,6). The behavioural tests for thermal and mechanical sensitivity were carried out on day 1 (the day following the first injection of paclitaxel), day 10, day 14 (7 days from the last injection), day 24 (peak severity of hyperalgesia and allodynia), day 30 and day 35 (day on which the animals were sacrificed). The animals (n=15) were divided into three experimental groups. The first group (A) received the treatment with paclitaxel, and was treated daily with […], 6 mg/kg by intraperitoneal injection from day 14 to day 35; the second group (B) treated with paclitaxel, was treated from day 14 to 35 with only the vehicle, and finally the third group consisted of naive animals (C). The results obtained are shown in the bar charts in FIGS. 18 and 19.

[2] = system: DBA/1J mice; experiment: Rheumatoid arthritis: type II collagen immunization; format: in vivo, mouse
Description: Rheumatoid arthritis (RA) is a chronic inflammatory disease that affects the joints in particular and is manifested by pain, stiffness and synovitis, which lead to destruction of the joint. Immunization of DBA/1J mice with type II collagen (CII) by intradermal injection, at the base of the tail, of 0.2 ml of an emulsion containing 2 mg/ml of bovine CII in complete Freund adjuvant induces T cells and autoantibodies specific to CII with clinical and histopathological signs that reproduce RA. Eighteen to twenty days after immunization, signs of inflammation appear, affecting one or more joints. At the first clinical signs of inflammation (inflammation of the digits and joints) with a score above 1.5 (Camps et al., 2005), we treated the animals with […] intraperitoneally (0.25 mg).
To establish the degree of infiltration of T cells in the arthritic lesions, sections fixed in formalin and embedded in paraffin were incubated with rabbit polyclonal anti-CD3 antibodies. After detection with peroxidase-labelled secondary antibodies, each sample was evaluated at 40× magnification and 3 immunoreactive “hot spots” were selected for counting the CD3^+ lymphocytes at 200× magnification.

[3] = system: Dark Agouti (DA) rats; experiment: Chronic experimental autoimmune encephalomyelitis (MOG); format: in vivo, rat; conditions: 1 mg/kg per os daily from day of inoculation, to day 50; dose-dependent; FIG. 43
Description: We investigated whether treatment with […], at the onset of EAE induced by immunization with MOG (myelin-oligodendrocyte-glycoprotein), stimulates histologic protection and functional recovery.
The motor and sensory deficits were classified according to the previously assigned “neuronal” clinical scores.
Chronic EAE was induced in 60 female adult Dark Agouti (DA) rats of 120-170 g, immunizing the animals with an intradermal injection, at the base of the tail, of […] of recombinant protein MOG1-125 in emulsified PBS in complete Freund adjuvant (CFA) containing hot-inactivated M. tuberculosis.
The rats were divided into 3 groups of 20 animals each and were treated with daily administrations of vehicle or […] 0.1 or 1 mg/kg per os, starting from the day of inoculation.
The neurological scores were measured and evaluated daily for the first thirty days, and thereafter only on weekdays (Monday-Friday) until the end of the study (day 50).
The range of neuroclinical scores begins at 0 (absence of neurologic symptoms) and ends with a score of 5 (complete paralysis of all legs or animal moribund).

[4] = system: naive murine CD4+ cells; experiment: Activation of naive murine CD4+ T cells in vitro (CFSE, cytofluorimeter, ELISA); format: cell-based, mouse
Text: The lymphocytes are cells of the immune defences that direct and amplify the response to attack. Their imbalance or malfunction is also at the root of autoimmune diseases. Successful increase in the ratio in favour of Treg cells can restore the equilibrium of the immune response and combat the resultant disorders. We analysed the activation of isolated naive murine CD4+ cells in the cytofluorimeter for the phenotype CD4+CD62L+CD44−CD25−. The cells were labelled with “5,6-carboxyfluorescein diacetate succinimyl ester” (CFSE) and we evaluated cellular proliferation in quantitative acquisitions with the cytofluorimeter based on the dilution of fluorescence, which depends on the proliferative activity of the cell.

[5] = system: Tg2576 mice; experiment: Alzheimer's transgenic murine model Tg2576: behavioural tests and β-amyloid plaques; format: in vivo, mouse; conditions: 4 and 15 mg/kg i.p. daily, 6th to 13th month
Description: In the transgenic murine model Tg2576 there is no loss of neurons, but there is neuronal deficit and accumulation of β-amyloid plaques. The production of peptides begins to increase rapidly starting from the 6th month of age, accompanied by a progressive cognitive decline. Around the 7th to 8th month, the first plaques develop, which are then diffuse at the 12th month.
The mice were treated with […] at 4 and at 15 mg/kg i.p. daily starting from the 6th month of age up to the 13th. Between the 9th and 10th month and between the 12th and 13th month the mice were submitted to behavioural tests, at the 13th month they were sacrificed and immunohistochemical analyses were performed on brain samples to verify modulation of the β-amyloid plaques.

[6] = system: lymphopenic mice with deletion of cd3ε; experiment: Chronic intestinal inflammation by transfer of naive CD4 cells; format: in vivo, mouse
Text: To study the effect of […] in idiopathic inflammatory diseases of the intestine, such as Crohn's disease and ulcerative colitis, we used lymphopenic mice with deletion of cd3ε. T lymphocytes are not present in these animals, and transfer of naive CD4 cells causes chronic intestinal inflammation. The simultaneous transfer of regulatory T cells (Treg) CD4^+CD25^+ […] the onset of the disease. […] Compared to mice reconstituted with naive CD4 and Treg cells (healthy controls), mice reconstituted with naive CD4 cells and treated with carriers show a severe oedematous-haemorrhagic picture of the colon with splenomegaly and lymphadenomegaly. […] The accumulation of Alcian-positive mucus filaments is visible inside the lumen of the cryptae (arrowheads). In the mice injected with CD4 cells and treated with carriers, muciparous goblet cells have completely disappeared along the cryptae. The cryptae are markedly hyperplasic with intensive cellular crowding, stratification, obliteration of the lumen (arrowheads), and a high frequency of mitotic cells is encountered (arrows). […] The cryptae are moderately hyperplasic and mucus filaments can be seen inside the lumen of the cryptae (arrowheads).

C=C(C=O)OC(C=O)n1cnc2c(N)ncnc21 (stereo not drawn) [2-[1-(6-aminopurin-9-yl)-2-oxoethoxy]prop-2-enal]
threshold of mechanical sensitivity (von Frey) ([1]; group A, paclitaxel + IMMUFLAM 6 mg/kg i.p. daily from day 14, day 30, vehicle 11.85±0.61 s): 18.28 ± 0.65 s | threshold of thermal sensitivity (Hargreaves) ([1]; paclitaxel + IMMUFLAM 6 mg/kg i.p. for twenty-one days (day 35), vehicle 5.82±0.18 s): 10.21 ± 0.34 s | cartilage erosion (content of proteoglycans) ([2]; 0.25 mg i.p., FIG. 29A): significant reduction in cartilage erosion | CD3+ lymphocytes infiltrating the joint ([2]; 0.25 mg i.p., FIG. 29B): significant reduction in CD3+ lymphocytes | clinical score ([2]; 0.25 mg intraperitoneally, from score above 1.5, vs carrier, FIG. 29C): significant reduction in the clinical score | neurological scores [3]: remained lower throughout the period of observation | number of proliferating cells (CFSE dilution) ([4]; 300 μM, FIG. 21): more than ten-fold reduction | secretion of interleukin-2 ([4]; ELISA in culture supernatant at 24 h): significantly reduces | expression of CD44 and shedding of L-selectin CD62L (cells CD44 positive, CD62L negative) ([4]; FIG. 21): significantly reduces | side scatter of the cells (parameter of activation of CD4 cells) ([4]; FIG. 21): reduced | score obtained in moving to Y (Y-maze test) [5]: very encouraging | finding and climbing onto the platform, hidden or visible (water maze test) ([5]; vs vehicle): significantly faster than the control | colon sections stained with Alcian-PAS ([6]; mice injected with CD4 cells): muciparous goblet cells positive to Alcian-PAS are identifiable along the cryptae | macroscopic appearance of colon, spleen and lymph nodes ([6]; treatment two weeks after injection of naive CD4 cells, FIG. 31): dramatic improvement of the inflammation of the colon | histological scores (0-4, Asseman) ([6]; vs carriers, no significant difference to healthy control): significant improvement of the lesions
